Laboratory results: patent publication US20170266123A1, “COATED PARTICLES FOR DRUG DELIVERY” (Dana-Farber Cancer Institute, Inc., priority 2014, published 2017)

How the values were obtained:
[1] = test system: 4T1 cells; assay: Viability of 4T1 cells exposed to Dox or Dox-laden nanoparticles through matrigel; type: cell-based; conditions: 500 ng/mL Dox; 3, 6 and 24 hours
Procedure: Nanoparticles with doxorubicin in the core were formed as described in Example 1, except doxorubicin was added to the organic solvent. The particles were coated as described in Example 10. To test the cell viability for cells exposed to doxorubicin particles, 500 ng/mL of Dox or Dox-laden nanoparticles were added to matrigel on top chamber of a 24 well plates seeded with 4T1 cells. Plates were incubated at 37° C., while gently shaken. The viability was measured at 3 hours, 6 hours, and 24 hours. Cell viability was determined as described in Example 5. For the mammosphere assay, 4T1 cells were seeded at 1000 cells/150 uL/well in 96 well ultra-low adherence plate. The remaining 4T1 cells after treatment were harvested and filtered and the number of mammospheres counted using microscopy.

[2] = test system: SKOV-3 (human ovarian cancer); assay: PTX cytotoxicity, MTT assay, SKOV3; type: cell-based; conditions: SK-OV-3, SKOV3, 72 hours
Procedure: (§1) Cells were seeded at a density of 10,000 cells per well in a 96-well and incubated overnight in 200 μL of complete medium. The culture medium was then replaced with 198 μL of fresh medium, two free drug/DMSO solution or NP suspensions in the final concentration ranging from 0.001 to 10,000 nM. After 72 hours of incubation, the medium was replaced with 100 μL of fresh medium containing 13% MTT and incubated for 3.5 hours. Finally, 100 μL of the solubilization/stop solution comprising 20% SDS, 0.02% v/v acetic acid, and 50% v/v DMSO was added to each well, and the absorbance was read at 560 nm by the microplate reader. Cell viability was calculated by dividing the absorbance of treated cells by that of untreated cells after subtracting the absorbance of cell-free medium from each. Here, the untreated cells were those provided with no drug but handled equally otherwise, and the cell-free medium was the medium mixed with MTT solution and stop-solution without cells.
(§2) Cell viability was determined as described in Example 5.

[3] = test system: Calu6 (human lung cancer); assay: PTX cytotoxicity, MTT assay, Calu6; type: cell-based; conditions: Calu-6, Calu6, 72 hours
Procedure: as §1, §2

[4] = test system: BR5FVB1-Akt (murine ovarian cancer); assay: PTX cytotoxicity, MTT assay, BR5FVB1-Akt; type: cell-based; conditions: Mus musculus, 72 hours
Procedure: as §1, §2

[5] = PTX content in murine blood and peritoneal cavity after IP dosing; type: in vivo; conditions: female, FVB, mouse, mice, IP 5 mg/kg, 3 hours post dosing
Procedure: Six week-old female FVB mice were obtained from Charles River Laboratory (Boston, USA). Mice were housed in a pathogen-free facility in accordance with the standards of the Dana-Farber Cancer Institute. All animal experiments were approved by the Institute's IACUC. Mice were kept in groups of 4-5 per cage in a 12 hour light/12 hour dark cycle and housed at 25° C. with 50% relative humidity. […] Mice were anaesthetized, and blood samples were collected via retro-orbital bleeding 3 hours post dosing. Blood samples were kept on ice until centrifugation. Samples were centrifuged at 1,400 RCF for 10 min, and plasma was collected. After blood sample collection, mice were sacrificed, and their peritoneal cavities were washed thrice post-mortem with PBS. Plasma and peritoneal washes were flash frozen with liquid nitrogen and lyophilized. The lyophilized powders were rehydrated in 300 μL water and extracted with tert-butyl methyl ether (tBME). The organic solvent was dried under nitrogen.

[6] = test system: BR5FVB1-Akt cells; assay: Survival study in immunocompetent murine model of ovarian cancer; type: in vivo, mouse; conditions: FVB mice, IP 5 mg/kg twice weekly, five doses
Procedure: The BR5FVB1-Akt mouse ovarian cancer cell line was cultured in DMEM supplemented with 10% FBS and 1% penicillin/streptomycin at 37° C. with 5% CO2. Subconfluent BR5FVB1-Akt cells were trypsinized, washed, and suspended in opti-MEM as a single-cell suspension. Six week-old female FVB mice were injected IP with a total volume of 400 μl opti-MEM containing 3.75×10^6 BR5FVB1-Akt cells.
Mice were sacrificed by CO2 asphyxiation upon ascites development. Their peritoneal cavities were opened postmortem to observe tumor location and extent of metastasis in the peritoneal region. All FVB mice inoculated with BR5FVB1-Akt cells developed tumors. Tumors developed gradually and manifested by formation of ascites in the peritoneal cavity. Tumors were detectable post-mortem as nodules of various sizes and number on the peritoneal wall or adhered to the intestine.
Statistical analysis was performed with GraphPad Prism 5 (La Jolla, Calif., USA). Statistical significance among groups was determined by one-way ANOVA, and pairs were compared by Tukey's multi-comparison test. Survival groups were compared using a Mantel-Cox test.

concentration at 3 h ([5]; peritoneal lavage (PBS wash of peritoneal cavity)) | concentration at 3 h ([5]; plasma) | Structure (SMILES) | viability of cells [1] | IC50 [2] | IC50 [3] | IC50 [4] | tumor onset [6]
– | – | COc1cccc2c1C(=O)c1c(O)c3c(c(O)c1C2=O)C[C@@](O)(C(=O)CO)C[C@@H]3O[C@H]1C[C@H](N)[C@H](O)[C@H](C)O1 [Dox in solution, doxorubicin] | reduced viability of cells | – | – | – | –
4500 ± 1300 ng/mL | 9500 ± 1900 ng/mL | CC(=O)O[C@H]1C(=O)[C@@]2(C)[C@H]([C@H](OC(=O)c3ccccc3)[C@]3(O)C[C@H](OC(=O)[C@H](O)[C@@H](NC(=O)c4ccccc4)c4ccccc4)C(C)=C1C3(C)C)[C@]1(OC(C)=O)CO[C@@H]1C[C@@H]2O [PTX, paclitaxel] | – | ~0.01 µM | ~0.01 µM | ~0.1 µM | developed tumors at similar time points
